Reference: ChEMBL document CHEMBL4393715, “Design, synthesis and biological evaluation of the thioether-containing lenalidomide analogs with anti-proliferative activities” (Eur J Med Chem, 2019)
pIC50: −log10 of the molar value. Blank lines part the entries; values can stand above or below the compound they belong to.

Tests used:
[1] = test system: MV4-11; experiment: Antiproliferative activity against human MV411 cells measured after 168 hrs by CellTiter96 Aqueous non-radioactive cell proliferation assay; type: functional, cell-based; settings: MV4-11, 168 h
[2] = Antiproliferative activity against human Mino cells measured after 72 hrs by CellTiter96 Aqueous non-radioactive cell proliferation assay; type: functional, cell-based
[3] = test system: MM1.S; experiment: Antiproliferative activity against human MM1S cells measured after 168 hrs by CellTiter96 Aqueous non-radioactive cell proliferation assay; type: functional, cell-based
[4] = test system: PBMC; experiment: Antiinflammatory activity in human PBMC cells assessed as reduction in LPS-induced TNF-alpha production preincubated for 1 hr followed by LPS addition and measured after 18 to 20 hrs by ELISA; type: functional, cell-based
[5] = MRT (infinity) in BALB/c mouse at 5 mg/kg, iv and measured up to 24 hrs by LC-MS/MS analysis; type: ADME, organism-based; settings: in vivo
[6] = test system: Z-138; experiment: Antiproliferative activity against human Z138 cells measured after 72 hrs by CellTiter96 Aqueous non-radioactive cell proliferation assay; type: functional, cell-based; settings: Z-138, 72 h
[7] = test system: JeKo-1; experiment: Antiproliferative activity against human JeKo1 cells measured after 72 hrs by CellTiter96 Aqueous non-radioactive cell proliferation assay; type: functional, cell-based; settings: JeKo-1, 72 h
[8] = test system: Raji; experiment: Antiproliferative activity against human Raji cells measured after 168 hrs by CellTiter96 Aqueous non-radioactive cell proliferation assay; type: functional, cell-based
[9] = test system: PBMC; experiment: Cytotoxicity against human PBMC cells by CellTiter96 Aqueous non-radioactive cell proliferation assay; type: cell-based
[10] = test system: U-266; experiment: Antiproliferative activity against human U266 cells measured after 72 hrs by CellTiter96 Aqueous non-radioactive cell proliferation assay; type: functional, cell-based; settings: U-266, 72 h
[11] = test system: RPMI-8226; experiment: Antiproliferative activity against human RPMI8226 cells measured after 72 hrs by CellTiter96 Aqueous non-radioactive cell proliferation assay; type: functional, cell-based; settings: RPMI-8226, 72 h
[12] = test system: THP-1; experiment: Antiproliferative activity against human THP1 cells measured after 168 hrs by CellTiter96 Aqueous non-radioactive cell proliferation assay; type: functional, cell-based; settings: THP-1, 168 h
[13] = test system: Kasumi 1; experiment: Antiproliferative activity against human Kasumi-1 cells measured after 168 hrs by CellTiter96 Aqueous non-radioactive cell proliferation assay; type: functional, cell-based; settings: Kasumi 1, 168 h
[14] = AUC (infinity) in BALB/c mouse at 5 mg/kg, iv and measured up to 24 hrs by LC-MS/MS analysis; type: ADME, organism-based; parameters: dose 5 mg/kg, route intravenous, time infinity; settings: in vivo
[15] = Clearance in BALB/c mouse at 5 mg/kg, iv and measured up to 24 hrs by LC-MS/MS analysis; type: ADME, organism-based; settings: in vivo
[16] = Volume of distribution at steady state in BALB/c mouse at 5 mg/kg, iv and measured up to 24 hrs by LC-MS/MS analysis; type: ADME, organism-based; settings: in vivo, read-out: Vdss
[17] = Half-life in BALB/c mouse at 5 mg/kg, iv and measured up to 24 hrs by LC-MS/MS analysis; type: ADME, organism-based; settings: in vivo
[18] = AUC (infinity) in BALB/c mouse at 20 mg/kg, po and measured up to 24 hrs by LC-MS/MS analysis; type: ADME, organism-based; parameters: dose 20 mg/kg, route oral, time infinity; settings: in vivo
[19] = Terminal elimination half life in BALB/c mouse at 20 mg/kg, po and measured up to 24 hrs by LC-MS/MS analysis; type: ADME, organism-based; settings: in vivo, read-out: LambdaZ (converted)
[20] = Tmax in BALB/c mouse at 20 mg/kg, po and measured up to 24 hrs by LC-MS/MS analysis; type: ADME, organism-based; settings: in vivo
[21] = Cmax in BALB/c mouse at 20 mg/kg, po and measured up to 24 hrs by LC-MS/MS analysis; type: ADME, organism-based; parameters: dose 20 mg/kg, route oral; settings: in vivo
[22] = Oral bioavailability in BALB/c mouse at 20 mg/kg and measured up to 24 hrs by LC-MS/MS analysis; type: ADME, organism-based; settings: in vivo
[23] = Toxicity in CB-17 SCID mouse xenografted with human RPMI8226 cells assessed as body weight at 60 mg/kg/day, po and measured after day 18 (reference value: 20.1 to 20.4 g); type: organism-based; settings: in vivo
[24] = test system: RPMI-8226; experiment: Antitumour activity against human RPMI8226 cells xenografted in CB-17 SCID mouse assessed as tumour volume at 60 mg/kg/day, po measured after day 18 (reference value: 153 to 154 mm3); type: functional
[25] = test system: RPMI-8226; experiment: Antitumour activity against human RPMI8226 cells xenografted in CB-17 SCID mouse assessed as relative tumour volume at 60 mg/kg/day, po measured twice a week for 21 days; type: functional
[26] = test system: RPMI-8226; experiment: Antitumour activity against human RPMI8226 cells xenografted in CB-17 SCID mouse assessed as inhibition of tumour growth at 60 mg/kg/day, po measured twice a week for 21 days relative to control; type: functional; parameters: scale not given: the % may be the effect or the level left
[27] = Toxicity in CB-17 SCID mouse xenografted with human RPMI8226 cells assessed as mortality at 60 mg/kg/day, po and measured after day 18; type: organism-based; settings: in vivo
[28] = Toxicity in CB-17 SCID mouse xenografted with human RPMI8226 cells assessed as increase in body weight at 60 mg/kg/day, po and measured after day 18 (reference value: 13.4%); type: organism-based; settings: in vivo

SMILES: CN1CCN(C(=O)c2ccc(CSc3cccc4c3CN(C3CCC(=O)NC3=O)C4=O)cc2)CC1 (stereo unspecified)
- pIC50 [2]: 8.47

SMILES: O=C1CCC(N2Cc3c(cccc3[S+]([O-])Cc3ccc(CN4CCOCC4)cc3)C2=O)C(=O)N1 (stereo unspecified)
- pIC50 [2]: 7.00

SMILES: Nc1ccc2c(c1)CN(C1CCC(=O)NC1=O)C2=O (stereo unspecified)
- pIC50 [4]: < 4.00

SMILES: O=C1CCC(N2Cc3c(SCc4ccc(Cl)cc4)cccc3C2=O)C(=O)N1 (stereo unspecified)
- MRT inf [5]: 56.4 min
- pIC50 [1]: < 4.70
- pIC50 [2]: 8.64
- pIC50 [3]: 8.96
- pIC50 [6]: < 4.70
- pIC50 [7]: < 4.70
- pIC50 [8]: < 4.70
- pIC50 [9]: < 4.70
- pIC50 [10]: < 4.70
- pIC50 [11]: 8.26
- pIC50 [12]: < 4.70
- pIC50 [13]: < 4.70
- AUC(0-inf) [14]: 0.428 µg·h/mL
- clearance [15]: 11.8 L/h/kg
- Vd [16]: 11.1 L/kg
- half-life [17]: 113 min
- AUC(0-inf) [18]: 0.755 µg·h/mL
- half-life [19]: 107 min
- Tmax [20]: 49.8 min
- Cmax [21]: 0.283 µg/mL
- bioavailability [22]: 39.2%
- Activity [23]: 22.4 g
- Activity [24]: 1022 mm3
- fold change (FC) [25]: 6.62
- Activity [26]: 52.31%
- Activity [27]: Non-Toxic
- Activity [28]: 9.8%

SMILES: O=C1CCC(N2Cc3c(SCc4ccc(CN5CCOCC5)cc4)cccc3C2=O)C(=O)N1 (stereo unspecified)
- MRT inf [5]: 22.2 min
- pIC50 [2]: 8.48
- AUC(0-inf) [14]: 0.397 µg·h/mL
- clearance [15]: 12.6 L/h/kg
- Vd [16]: 4.69 L/kg
- half-life [17]: 52.8 min
- AUC(0-inf) [18]: 0.288 µg·h/mL
- half-life [19]: 85.8 min
- Tmax [20]: 8.4 min
- Cmax [21]: 0.496 µg/mL
- bioavailability [22]: 17.6%

SMILES: CSc1cccc2c1CN(C1CCC(=O)NC1=O)C2=O (stereo unspecified)
- pIC50 [1]: < 4.70
- pIC50 [2]: 6.03
- pIC50 [3]: 8.68

SMILES: CC1CC(C)CN(C(=O)c2ccc(CSc3cccc4c3CN(C3CCC(=O)NC3=O)C4=O)cc2)C1 (stereo unspecified)
- pIC50 [2]: 8.22

SMILES: CNC(=O)c1ccc(CSc2cccc3c2CN(C2CCC(=O)NC2=O)C3=O)cc1 (stereo unspecified)
- pIC50 [2]: 7.55

SMILES: O=C1CCC(N2Cc3c(SCc4ccc(C(=O)N5CCCCC5)cc4)cccc3C2=O)C(=O)N1 (stereo unspecified)
- MRT inf [5]: 27 min
- pIC50 [2]: 9.30
- AUC(0-inf) [14]: 0.424 µg·h/mL
- clearance [15]: 11.8 L/h/kg
- Vd [16]: 5.31 L/kg
- half-life [17]: 42 min
- AUC(0-inf) [18]: 0.0341 µg·h/mL
- half-life [19]: 84.6 min
- Tmax [20]: 30 min
- Cmax [21]: 0.0167 µg/mL
- bioavailability [22]: 2.9%

SMILES: CC(C)(C)OC(=O)c1ccc(CSc2cccc3c2CN(C2CCC(=O)NC2=O)C3=O)cc1 (stereo unspecified)
- pIC50 [2]: 8.96

SMILES: CCNC(=O)c1ccc(CSc2cccc3c2CN(C2CCC(=O)NC2=O)C3=O)cc1 (stereo unspecified)
- pIC50 [2]: 8.38

SMILES: Nc1cccc2c1CN(C1CCC(=O)NC1=O)C2=O (stereo unspecified) [LENALIDOMIDE]
- pIC50 [1]: < 4.70
- pIC50 [2]: < 4.70
- pIC50 [3]: 7.30
- pIC50 [6]: < 4.70
- pIC50 [7]: < 4.70
- pIC50 [8]: < 4.70
- pIC50 [9]: < 4.70
- pIC50 [10]: < 4.70
- pIC50 [11]: < 4.70
- pIC50 [12]: < 4.70
- pIC50 [13]: < 4.70

More lines, main results first:

- pIC50 [1]: < 4.70
- pIC50 [3]: 8.96
SMILES: O=C1CCC(N2Cc3c(SCc4ccccc4Cl)cccc3C2=O)C(=O)N1 (stereo unspecified)
- pIC50 [2]: 7.94

- pIC50 [1]: < 4.70
- pIC50 [3]: 9.40
SMILES: Cc1cccc(CSc2cccc3c2CN(C2CCC(=O)NC2=O)C3=O)c1 (stereo unspecified)
- pIC50 [2]: 8.48

- pIC50 [1]: < 4.70
- pIC50 [3]: 9.05
- pIC50 [8]: < 4.70
- pIC50 [11]: 7.40
- pIC50 [12]: < 4.70
SMILES: O=C1CCC(N2Cc3c(SCc4ccc(F)cc4)cccc3C2=O)C(=O)N1 (stereo unspecified)
- pIC50 [2]: 8.59
- pIC50 [6]: < 4.70
- pIC50 [7]: < 4.70
- pIC50 [9]: < 4.70
- pIC50 [10]: 8.59
- pIC50 [13]: < 4.70

- pIC50 [1]: < 4.70
- pIC50 [3]: 9.40
- pIC50 [8]: < 4.70
- pIC50 [11]: 8.27
- pIC50 [12]: < 4.70
SMILES: Cc1ccc(CSc2cccc3c2CN(C2CCC(=O)NC2=O)C3=O)cc1 (stereo unspecified)
- pIC50 [2]: 8.54
- pIC50 [6]: < 4.70
- pIC50 [7]: < 4.70
- pIC50 [9]: < 4.70
- pIC50 [10]: 8.25
- pIC50 [13]: < 4.70

- pIC50 [1]: < 4.70
- pIC50 [3]: 8.96
SMILES: O=C1CCC(N2Cc3c(SCc4ccccc4)cccc3C2=O)C(=O)N1 (stereo unspecified)
- pIC50 [2]: 8.20
